# Assay results: patent US20240101546A1, “HETEROARYL-ACETYLENES, PHARMACEUTICAL COMPOSITIONS THEREOF, AND THEIR THERAPEUTIC APPLICATIONS” (Eubulus Biotherapeutics Inc., priority 2020, published 2024)
# System: lung cancer cell line NCI-H82
# Assay: Cell proliferation assay, NCI-H82 (CELL-TITER GLO)
# Type: cell-based
# Conditions: Homo sapiens, NCI-H82, 72 h, NCI-H82 cells, 72 h incubation, cell viability by CELL-TITER GLO, top concentration 1 μM; read-out: EC50, Inhibition of NCl-H82 Cell Proliferation
# Summary of the method: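 NCI-H82 cells, 1,000 per well in RPMI1640, were treated after overnight plating with a 3-fold dilution series from 1 μM. Viability read by CellTiter-Glo luminescence after 72 h. EC50 derived from the curves.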
row,Compound,EC50
1,"C#Cc1nc(NC(=O)N[C@@H](CO)c2ccc(C3CCCN(C(C)=O)C3)cc2)cs1 (stereo partly drawn) [Compound A194, 1-((1R)-1-(4-(1-Acetylpiperidin-3-yl)phenyl)-2-hydroxyethyl)-3-(2-ethynyl-thiazol-4-yl)urea]",200 to 1000 nM
2,"C#Cc1nc(NC(=O)N[C@@H](CO)c2ccc(N3CCCCC3)cc2)cs1 [Compound A195, (R)-1-(2-Ethynylthiazol-4-yl)-3-(2-hydroxy-1-(4-(piperidin-1-yl)phenyl)ethyl)-urea]",≤ 200 nM
3,"C#Cc1nc(NC(=O)N[C@@H](CC#N)c2ccc(-c3cccc4ncsc34)cc2)cs1 [Compound A196, (S)-1-(1-(4-(Benzo[d]thiazol-7-yl)phenyl)-2-cyanoethyl)-3-(2-ethynylthiazol-4-yl)urea]",≤ 200 nM
4,"C#Cc1nc(NC(=O)N[C@@H](CS(C)(=O)=O)c2ccc(-c3cccc4ncsc34)cc2)cs1 [Compound A197, (R)-1-(1-(4-(Benzo[d]thiazol-7-yl)phenyl)-2-(methylsulfonyl)ethyl)-3-(2-ethynyl-thiazol-4-yl)urea]",≤ 200 nM
5,"C#Cc1nc(NC(=O)N[C@@H](CS(N)(=O)=O)c2ccc(-c3cccc4ncsc34)cc2)cs1 [Compound A198, (R)-2-(4-(Benzo[d]thiazol-7-yl)phenyl)-2-(3-(2-ethynylthiazol-4-yl)ureido)-ethane-1-sulfonamide]",≤ 200 nM
6,"C#Cc1nc(NC(=O)N[C@@H](CS(=O)(=O)NC)c2ccc(-c3cccc4ncsc34)cc2)cs1 [Compound A199, (R)-2-(4-(Benzo[d]thiazol-7-yl)phenyl)-2-(3-(2-ethynylthiazol-4-yl)ureido)-N-methylethane-1-sulfonamide]",≤ 200 nM
7,"C#Cc1nc(NC(=O)N[C@@H](COC)c2ccc(-c3cccc4ncsc34)cc2)cs1 [Compound A200, (R)-1-(1-(4-(Benzo[d]thiazol-7-yl)phenyl)-2-methoxyethyl)-3-(2-ethynylthiazol-4-yl)urea]",≤ 200 nM
8,"C#Cc1nc(NC(=O)N[C@@H](COC(C)=O)c2ccc(-c3cccc4ncsc34)cc2)cs1 [Compound A201, (R)-2-(4-(Benzo[d]thiazol-7-yl)phenyl)-2-(3-(2-ethynylthiazol-4-yl)ureido)ethyl acetate]",≤ 200 nM
9,"C#Cc1nc(NC(=O)N[C@@H](COC(=O)C(C)(C)C)c2ccc(-c3cccc4ncsc34)cc2)cs1 [Compound A202, (R)-2-(4-(Benzo[d]thiazol-7-yl)phenyl)-2-(3-(2-ethynylthiazol-4-yl)ureido)ethyl pivalate]",≤ 200 nM
10,"C#Cc1nc(NC(=O)N[C@H](c2ccc(-c3cccc4ncsc34)cc2)C(C)(C)O)cs1 [Compound A203, (R)-1-(1-(4-(Benzo[d]thiazol-7-yl)phenyl)-2-hydroxy-2-methylpropyl)-3-(2-ethynylthiazol-4-yl)urea]",≤ 200 nM
11,"C#Cc1nc(NC(=O)N[C@H](c2ccc(-c3cccc4ncsc34)cc2)C(C)O)cs1 (stereo partly drawn) [Compound A204, 1-((1R)-1-(4-(Benzo[d]thiazol-7-yl)phenyl)-2-hydroxypropyl)-3-(2-ethynyl-thiazol-4-yl)urea]",≤ 200 nM
12,"C#Cc1nc(NC(=O)N(CCC#N)Cc2ccc(-c3cccc4ncsc34)cc2)cs1 [Compound A205, 1-(4-(Benzo[d]thiazol-7-yl)benzyl)-1-(2-cyanoethyl)-3-(2-ethynylthiazol-4-yl)urea]",≤ 200 nM
13,"C#Cc1nc(NC(=O)N(CCO)Cc2ccc(-c3cccc4ncsc34)cc2)cs1 [Compound A206, 1-(4-(Benzo[d]thiazol-7-yl)benzyl)-3-(2-ethynylthiazol-4-yl)-1-(2-hydroxyethyl)-urea]",≤ 200 nM
14,"C#Cc1nc(NC(=O)N(CCS(C)(=O)=O)Cc2ccc(-c3cccc4ncsc34)cc2)cs1 [Compound A207, 1-(4-(Benzo[d]thiazol-7-yl)benzyl)-3-(2-ethynylthiazol-4-yl)-1-(2-(methyl-sulfonyl)ethyl)urea]",≤ 200 nM
15,"C#Cc1nc(NC(=O)N(CC#N)Cc2ccc(-c3cccc4ncsc34)cc2)cs1 [Compound A208, 1-(4-(Benzo[d]thiazol-7-yl)benzyl)-1-(cyanomethyl)-3-(2-ethynylthiazol-4-yl)urea]",≤ 200 nM
16,"C#Cc1nc(NC(=O)NC(C(N)=O)c2ccc(-c3cccc4ncsc34)cc2)cs1 (stereo not drawn) [Compound A209, 2-(4-(Benzo[d]thiazol-7-yl)phenyl)-2-(3-(2-ethynylthiazol-4-yl)ureido)acetamide]",≤ 200 nM
17,"C#Cc1nc(NC(=O)N[C@@H](C(N)=O)c2ccc(-c3cccc4ncsc34)cc2)cs1 [Compound A210, (R)-2-(4-(Benzo[d]thiazol-7-yl)phenyl)-2-(3-(2-ethynylthiazol-4-yl)ureido)-acetamide]",≤ 200 nM
18,"C#Cc1nc(NC(=O)N[C@H](C(N)=O)c2ccc(-c3cccc4ncsc34)cc2)cs1 [Compound A211, (S)-2-(4-(Benzo[d]thiazol-7-yl)phenyl)-2-(3-(2-ethynylthiazol-4-yl)ureido)-acetamide]",≤ 200 nM

row,Compound,EC50
1,"C#Cc1nc(NC(=O)N[C@@H](C(N)=O)c2ccc(-c3cccc(C4(C#N)CC4)c3)cc2)cs1 [Compound A212, (R)-2-(3′-(1-Cyanocyclopropyl)-[1,1′-biphenyl]-4-yl)-2-(3-(2-ethynylthiazol-4-yl)ureido)acetamide]",≤ 200 nM
2,"C#Cc1nc(NC(=O)N[C@@H](C(=O)NC)c2ccc(-c3cccc4nc[nH]c(=O)c34)cc2)cs1 [Compound A213, (R)-2-(3-(2-Ethynylthiazol-4-yl)ureido)-N-methyl-2-(4-(4-oxo-3,4-dihydro-quinazolin-5-yl)phenyl)acetamide]",≤ 200 nM
3,"C#Cc1nc(NC(=O)NC(C(=O)NC)c2ccc(-c3cccc4ncsc34)cc2)cs1 (stereo not drawn) [Compound A214, 2-(4-(Benzo[d]thiazol-7-yl)phenyl)-2-(3-(2-ethynylthiazol-4-yl)ureido)-N-methylacetamide]",≤ 200 nM
4,"C#Cc1nc(NC(=O)N[C@@H](C(=O)NC)c2ccc(-c3cccc4ncsc34)cc2)cs1 [Compound A215, (R)-2-(4-(Benzo[d]thiazol-7-yl)phenyl)-2-(3-(2-ethynylthiazol-4-yl)ureido)-N-methylacetamide]",≤ 200 nM
5,"C#Cc1nc(NC(=O)N[C@H](C(=O)NC)c2ccc(-c3cccc4ncsc34)cc2)cs1 [Compound A216, (S)-2-(4-(Benzo[d]thiazol-7-yl)phenyl)-2-(3-(2-ethynylthiazol-4-yl)ureido)-N-methylacetamide]",≤ 200 nM
6,"C#Cc1nc(NC(=O)N[C@@H](C(=O)NC)c2ccc(-c3cccc(C4(C#N)CC4)c3)cc2)cs1 [Compound A217, (R)-2-(3′-(1-Cyanocyclopropyl)-[1,1′-biphenyl]-4-yl)-2-(3-(2-ethynylthiazol-4-yl)ureido)-N-methylacetamide]",≤ 200 nM
7,"C#Cc1nc(NC(=O)N[C@@H](C(=O)NC)c2ccc(-c3cccc(C4(O)CC4)c3)cc2)cs1 [Compound A218, (R)-2-(3-(2-Ethynylthiazol-4-yl)ureido)-2-(3′-(1-hydroxycyclopropyl)-[1,1′-biphenyl]-4-yl)-N-methylacetamide]",≤ 200 nM
8,"C#Cc1nc(NC(=O)N[C@@H](C(=O)NC)c2ccc(-c3cccc(C(=O)CC)c3)cc2)cs1 [Compound A219, (R)-2-(3-(2-Ethynylthiazol-4-yl)ureido)-N-methyl-2-(3′-propionyl-[1,1′-biphenyl]-4-yl)acetamide]",≤ 200 nM
9,"C#Cc1nc(NC(=O)N[C@@H](C(=O)N(C)C)c2ccc(-c3cccc4ncsc34)cc2)cs1 [Compound A220, (R)-2-(4-(Benzo[d]thiazol-7-yl)phenyl)-2-(3-(2-ethynylthiazol-4-yl)ureido)-N,N-dimethylacetamide]",≤ 200 nM
10,"C#Cc1nc(NC(=O)N[C@@H](COC(N)=O)c2ccc(-c3cccc(C#N)c3)cc2)cs1 [Compound A221, (R)-2-(3′-Cyano-[1,1′-biphenyl]-4-yl)-2-(3-(2-ethynylthiazol-4-yl)ureido)ethyl carbamate]",≤ 200 nM
11,C#Cc1nc(NC(=O)NC(COC(N)=O)c2ccc(-c3cccc(C4(C#N)CC4)c3)cc2)cs1 (stereo not drawn) [Compound A222],≤ 200 nM
12,"C#Cc1nc(NC(=O)N[C@@H](COC(N)=O)c2ccc(-c3cccc4ncsc34)cc2)cs1 [Compound A223, (R)-2-(4-(Benzo[d]thiazol-7-yl)phenyl)-2-(3-(2-ethynylthiazol-4-yl)ureido)ethyl carbamate]",≤ 200 nM
13,"C#Cc1nc(NC(=O)N[C@@H](COC(=O)NC)c2ccc(-c3cccc4ncsc34)cc2)cs1 [Compound A224, (R)-2-(4-(Benzo[d]thiazol-7-yl)phenyl)-2-(3-(2-ethynylthiazol-4-yl)ureido)ethyl methylcarbamate]",≤ 200 nM
14,"C#Cc1nc(NC(=O)N[C@@H](COC(N)=O)c2ccc(-c3cccc4nnsc34)cc2)cs1 [Compound A225, (R)-2-(4-(Benzo[d][1,2,3]thiadiazol-7-yl)phenyl)-2-(3-(2-ethynylthiazol-4-yl)-ureido)ethyl carbamate]",≤ 200 nM
15,"C#Cc1nc(NC(=O)N[C@@H](COC(N)=O)c2ccc(-c3cccc4nsnc34)cc2)cs1 [Compound A226, (R)-2-(4-(Benzo[c][1,2,5]thiadiazol-4-yl)phenyl)-2-(3-(2-ethynylthiazol-4-yl)-ureido)ethyl carbamate]",≤ 200 nM
16,"C#Cc1nc(NC(=O)N[C@@H](COC(N)=O)c2ccc(-c3cccc4cccnc34)cc2)cs1 [Compound A227, (R)-2-(3-(2-Ethynylthiazol-4-yl)ureido)-2-(4-(quinolin-8-yl)phenyl)ethyl carbamate]",≤ 200 nM
17,"C#Cc1nc(NC(=O)N[C@@H](COC(N)=O)c2ccc(-c3cccc4cnccc34)cc2)cs1 [Compound A229, (R)-2-(3-(2-Ethynylthiazol-4-yl)ureido)-2-(4-(isoquinolin-5-yl)phenyl)ethyl carbamate]",≤ 200 nM
18,"C#Cc1nc(NC(=O)N[C@@H](COC(N)=O)c2ccc(-c3cccc4ncccc34)cc2)cs1 [Compound A230, (R)-2-(3-(2-Ethynylthiazol-4-yl)ureido)-2-(4-(quinolin-5-yl)phenyl)ethyl carbamate]",≤ 200 nM
